Data on 3 compounds can be found in patent publication US20060099568A1, “Signals and molecular species involved in senescence” (priority 2002, published 2006).

One assay concerns cellular cAMP. Kind of assay: measurement of cyclic AMP accumulation (cAMP binding assay). The format is cell-based, human. To be noted: near-senescent HDF (passage 26); 30 μg/ml LPA; 10 μM inhibitor. The procedure:
FIG. 9 represents LPA-induced alteration of cellular cAMP content in presenescent and near-senescent fibroblasts. Subconfluent presenescent (passage 8, Pa 8) and near-senescent (passage 24, Pa 24) fibroblasts were serum-starved for 2 days and treated with LPA: A, 1-70 μg/ml LPA for 30 min; B, 30 μg/ml LPA for the indicated times. The level of cAMP in the acid extracts was measured by cAMP binding assay. The data represents an average of triplicate experiments.
Subconfluent near-senescent (passage 26, Pa 26) fibroblasts were serum-starved for 2 days and treated with 30 μg/ml LPA for the indicated times in the absence or presence of 10 μM PKC inhibitor bisindolylmaleiamide (bIM). The level of cAMP in the acid extracts was measured by cAMP binding assay. The data represents an average of triplicate experiments.
Cells grown on a 12 well-plate were serum-starved by incubating with SFM for 2 days. After the cells were equilibrated in the fresh SFM medium for 1 hour, they were treated with LPA as described in the figure. The reaction was terminated by removing the medium and by adding 2.5 M perchloric acid. The acid extract was stored at −20° C. until use. The acid extract was neutralized with 4.2 M KOH and the cAMP content was determined by competitive binding with [^3H]cAMP to the cAMP binding protein, RIα of cAMP-dependent protein kinase, as described by Jang and Juhnn (2001). After the extraction, cells were lyzed with 0.1 N NaOH and analyzed for protein content using the Bradford protein assay reagent. The cAMP content was normalized to the amount of acid-insoluble protein.

In assay [1] the test system is HDF. Nature of the assay: flow cytometry (FACS, propidium iodide) of cell cycle progression. The format is cell-based, human. To be noted: senescent cell. As for the experimental part: FIG. 21 represents the results of FACS analysis evaluating the effect of LPA on cell cycle progression in senescent cells in connection with the affection of cAMP control. Con denotes control group and ACI is adenylyl cyclase inhibitor.
In addition, the treated cells were analyzed using flow cytometry. The treated cells were harvested and treated with […] of 0.1% trypsin for 30 sec, after which centrifugation was performed at 4° C. for 10 min at 1000 rpm. Then, the cell concentration was adjusted to 1-3×10^6 cells/ml in sample buffer. The sample buffer was prepared in such a manner that 1 g glucose in 1 L PBS without Ca^2+ and Mg^2+ was filtered through a 0.22 μm filter. The solutions containing cells was centrifuged at 4° C. for 10 min at 1000 rpm and ice-cold 70% ethanol was added dropwise to pellet. The sample tube was capped, allowed to fix in the ethanol overnight at 4° C., vortexed briefly, and then centrifuged for 5 min at 3000 rpm. Thereafter, ethanol was discarded and PI (propidium iodide) staining solution (0.5 ml 20× propidium iodide stock solution (50 μg/ml final), 1000 kunits RNase A (100 U/ml final) and 10 ml sample buffer) was added into the sample tube. Finally, the sample was analyzed within 24 hr in a […] (FACS Calibur, Beckton-Dikinson).

Assay [2] has as its system HDF. Kind of assay: viable cell counting (Trypan blue) with adenylyl cyclase inhibitor and/or LPA. The format is cell-based, human. To be noted: senescent cell culture; LPA plus adenylyl cyclase inhibitor (SQ22536 300 μM). The procedure:
O and Y denote old and young cell, respectively.
Young or old HDF (passage 8-11) were treated with LPA (30 μM), dbcAMP (cAMP analog, 1 mM, Sigma), adenylyl cyclase inhibitor, SQ22536 (300 μM, Calbiochem) and their combinations for 30-60 min at 37° C. The cells treated were stained with Trypan blue (GiBco/BRL) for 10 min at 37° C. and only cells without blue color were then counted under hemacytometer.

Assay [3] deals with human diploid fibroblasts. Kind of assay: measurement of cytosolic free [Ca2+]i by confocal microscopy (fluo-3-AM). The format is cell-based. To be noted: PDGF 50 ng/ml, LPA 1 μg/ml. As for the experimental part: FIG. 1 represents differential changes in growth factor-stimulated calcium release in senescent fibroblasts. Presenescent (passage 7: A and C) and senescent (passage 27: B and D) fibroblasts were grown on coverslips, serum-starved, and incubated with 4 μM fluo-3-AM in serum-free medium for 40 min. The stained cells were treated with […] of platelet-derived growth factor (A and B) or 1 μg/ml of lysophosphatidic acid (C and D) via a micro-perfusion system for the real-time measurement of signaling molecules, and laser scanning confocal microscopy. The scanned images were analyzed for changes in intracellular Ca^2+ at the single cell level and results expressed as relative fluorescence intensity (RFI).
[Ca^2+]i was measured using a laser scanning confocal microscope, as described by Junn et al. (2000). Quiescent fibroblasts grown on glass cover slips in a 6-well plate were stained with 4 μM of fluo-3-acetoxymethyl ester (fluo-3-AM) in phenol red-free medium without serum for 40 min and washed three times with the serum-free medium. Stained cells on each cover slip were mounted on a perfusion chamber (MPS-1000, Seoul Engineering, Korea), placed under the confocal laser scanning microscope (Carl Zeiss LSM 410), and scanned every 5 sec with a 488 nm excitation argon laser and a 515 nm long pass emission filter. Growth factors were added to the cells using an automatic pumping system (self-designed). All scanned images were analyzed for [Ca ^2+]i changes at the single cell level using “Time Series Program” for a real-time measurement of relative fluorescence intensity (RFI) which is installed in the Carl Zeiss LSM 410 confocal system.

A further assay deals with phospholipase D (PLD). Nature of the assay: phosphatidylbutanol formation as an indication of phospholipase D activity. The format is cell-based, human. The following applies: passage 24 near-senescent cells vs presenescent; 0.5% 1-butanol, 20 min. As for the experimental part: Subconfluent presenescent (passage 8: Pa 8) and near-senescent (passage 24: Pa 24) cells were serum-starved and labeled with [^3H]myristic acid overnight. […] A representative experiment of three performed in duplicate is presented.
Quiescent cells were labeled overnight with [^3H]myristic acid (1 μCi/ml) and then washed with PBS. Phosphatidylbutanol formation was measured as described by Yeo et al. (1994). Cells were preincubated with 0.5% (v/v) 1-butanol for 15 min and then treated with agonists for 20 min in the presence of 0.5% 1-butanol. Total lipids were extracted and separated by thin layer chromatography. The band of phosphatidylbutanol was scraped off the plates and its radioactivity was counted in a liquid scintillation cocktail.

The test system of the next assay is Phospholipase C (PLC). The following applies: near-senescent cells (passage 23) vs presenescent (passage 6); PDGF 50 ng/ml, LPA 1 μg/ml, 20 min, 20 mM LiCl.
Assay [4] has as its system human diploid fibroblasts. Nature of the assay: DNA synthesis, [3H]thymidine incorporation. The format is cell-based. The following applies: for increase in [3H]thymidine incorporation: 50-100 ng/ml PDGF. As for the experimental part: FIG. 5 represents reduction of growth factor-induced thymidine incorporation in near-senescent fibroblasts. […] The amount of [^3H]thymidine incorporated into DNA over 4 hrs was measured as described. The data represents an average of 3 counts in cpm. A representative experiment of the three is presented in A. Fold increase over the untreated control was calculated and plotted in B.
FIG. 18 represents changes in LPA-induced thymidine incorporation and cell proliferation in near-senescent fibroblasts versus presenescent fibroblasts. Subconfluent presenescent (passage 8, Pa 8) and near-senescent (passage 24, Pa 24) fibroblasts were serum-starved for 2 days and treated with LPA (1-70 μg/ml) for 16 hrs. The amount of [^3H]thymidine incorporated into DNA over 4 hrs was measured as described. The data represents an average of 3 counts in cpm in each independent experiments. A representative experiment of the three is presented in A. Converted fold increase over the untreated control was calculated and plotted in B.
Quiescent cells were labeled with [^3H]thymidine (0.5 μCi/ml) for 4 hrs and the […] radioactive thymidine was removed by washing with PBS. DNA was precipitated with 10% TCA and lysed in 0.5N NaOH. The radioactivity in neutralized lysates was counted in a liquid scintillation cocktail.

Assay [5] concerns human diploid fibroblasts. Kind of assay: growth factor-stimulated signaling events in human diploid fibroblasts. The format is cell-based. As for the experimental part: Foreskin fibroblasts were isolated as described by Boyce and Ham (1983). Cells were cultured in Dulbecco's modified Eagle's medium containing 10% fetal bovine serum and antibiotics. The primary culture contained smaller and more closely packed cells during the early stage of the culture. Cells with less than 10 passage were often considered as presenescent cells. As the cells were passaged, they became larger and they have a slower growth rate at passage 10-20. Cells from over 27 passages were completely growth-arrested and developed characteristic appearance designated previously as replicative senescence (Yeo et al., 2000a and b). In order to confirm that cells were senescent, we either examined the activity of beta-galactosidase or stained with X-gal, a membrane permeable substrate of the enzyme, which produces a blue insoluble product inside of the cells. The number of cells stained with X-gal increased with age and most of cells from passage 27-28 were stained. Cultures of over 23-28 passages have also shown the cessation of cell growth and senescence-like morphological changes, but only 70-80% of cells were stained with X-gal. These were termed “near-senescent”. Although the near-senescent cultures were not completely homogeneous, we compared the changes in these cultures to those in presenescent cultures of passage 6-10. In order to determine the growth factor-stimulated signaling events, cells were grown for 1-2 days to 60-70% sub-confluency in the culture medium, and then serum-starved to become quiescent by incubating with serum free medium (SFM) for 2 days. The quiescent cells were treated with various agonists, as described in the figure legends. To label cells, radioactive chemicals were added during the incubation with SFM.
Primary human diploid fibroblasts, isolated from newborn foreskins, were used to study the mechanism of reduced response to growth factor stimulation with aging. These cells were maintained and passaged as described previously (Yeo et al., 2000a). […] Compared to their presenescent counterparts, the senescent and near-senescent cells were larger and grew to lower density, as has been observed in other cell systems. Here the present inventors report upon the differential changes in the signaling events evoked by platelet-derived growth factor (PDGF) and lysophosphatidic acid (LPA). PDGF elicits signaling events over a concentration range of 10-100 ng/ml, whereas LPA stimulates the hydrolysis of phospholipids, Ca^2+ mobilization, and actin polymerization over a concentration range of 0.1-10 μg/ml in human diploid fibroblasts. In order to compare their cellular responses, we treated presenescent and senescent (or near-senescent) cells with PDGF and LPA at a maximally responsive dose of 50 ng/ml and 1 μg/ml, respectively.

Assay [6] deals with human diploid fibroblasts. Nature of the assay: confocal microscopic measurement of actin polymerization (NBD-phallacidin). The format is cell-based. To be noted: PDGF 50 ng/ml, LPA 1 μg/ml. As for the experimental part:
FIG. 2 represents differential changes in growth factor-induced actin polymerization in senescent fibroblasts. […] The cells were fixed, permeabilized, and stained with NBD-phallacidin, then photographed.
F-actin was stained as described by Shin et al. (1999). Quiescent cells grown on glass cover slips in multi-well culture plates were treated with agonists for 30 min, and the cells were fixed with 3.7% paraformaldehyde in PBS for 30 min on ice. Following permeabilization with 0.2% Triton X-100 in PBS for 15 min on ice, the cells were stained with […] NBD-phallacidin in PBS for 30 min at RT. The stained cells were washed three times with PBS for 15 min and the cover slip was mounted on a slide glass with Gelvatol, which was prepared by mixing 100 ml of 23% polyvinyl alcohol in PBS with 50 ml glycerol. The cells were then observed under a confocal fluorescence microscope.

[7] abbreviates: near-senescent cells (passage 24).

“bisindolylmaleiamide [bis-indolylmaleiamide]”: the “cAMP content in LPA-stimulated cells in presence of PKC inhibitor” value in the assay with cellular cAMP is “inhibition of cAMP accumulation”.

`Nc1ncnc2c1ncn2C1CCCO1` (stereo not shown) [adenylyl cyclase inhibitor]: the “number of cells in S phase” value in the assay with HDF [1] (adenylyl cyclase inhibitor alone) was “dramatically increased”; with HDF [1] (co-treatment of adenylyl cyclase inhibitor with LPA) it was “more enhanced”. Moreover, the viable cell number result in the assay with HDF [2] was “dramatically increased”.

For the compound PDGF, the “cytosolic Ca2+ levels” value in [3] (presenescent fibroblasts (passage 7)) is given as “rapid increase”. Also, the “Ca2+ response in senescent cells relative to presenescent” value in assay [3] (senescent cells (passage 27)) was “greatly attenuated”. In the assay with phospholipase D (PLD), the “reduction of PLD activity” value is recorded as 80%. Moreover, the “agonist-stimulated inositol phosphates (IPs) production” value with Phospholipase C (PLC) is reported as “dramatically reduced”. In [4] (setting [7]), the “agonist-induced DNA synthesis ([3H]thymidine incorporation) in near-senescent cells vs presenescent” value is “greatly reduced” and the “increase in [3H]thymidine incorporation” value was determined as 1.3 fold. Also, the “increase in [3H]thymidine incorporation” value in assay [4] (presenescent cells (passage 8)) is 7-8 fold. In addition, the “concentration range of very strong agonism for [3H]thymidine incorporation” value in assay [4] (presenescent fibroblasts) is 10 to 100 ng/mL. Besides, the “concentration range over which signaling events are elicited” value in assay [5] (human diploid fibroblasts) was in the range of 10 to 100 ng/mL. The maximally responsive dose in assay [5] (presenescent and senescent (or near-senescent) cells) amounted to 50 ng/mL. Further, the “actin polymerization (stress fibers)” value in assay [6] (presenescent fibroblasts (passage 10)) was “enhanced the formation of stress fibers”. Besides, the “agonist-induced actin polymerization in senescent cells” value in [6] (senescent cells (passage 27)) is “almost completely blocked”.
